Laboratory results taken from the supplement of paper PMC10307832.

How the values were obtained:
Assay in all cases: relative viability (nuclei count vs DMSO), 5 days (fraction); higher = more cells survive
BI-D1870 + Foretinib = compound: CC(C)CCN1c2nc(Nc3cc(F)c(O)c(F)c3)ncc2N(C)C(=O)C1C [BI-D1870] + COc1cc2c(Oc3ccc(NC(=O)C4(C(=O)Nc5ccc(F)cc5)CC4)cc3F)ccnc2cc1OCCCN1CCOCC1 [Foretinib] (partner 0.25 µM)
Summary of the method: (§1)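 Relative viability is defined as nuclei in treated wells over nuclei in vehicle wells. Duplicate plates were run and medians reported. Lung cancer cell lines in 1536-well plates were dosed by pin tool one day after seeding, with one drug or with a fixed anchor-drug dose plus five library-drug doses (not always all listed) in √10 steps, and nuclei were counted after 5 days.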

BI-D1870 + Lapatinib = compound: CC(C)CCN1c2nc(Nc3cc(F)c(O)c(F)c3)ncc2N(C)C(=O)C1C [BI-D1870] + CS(=O)(=O)CCNCc1ccc(-c2ccc3ncnc(Nc4ccc(OCc5cccc(F)c5)c(Cl)c4)c3c2)o1 [Lapatinib] (partner 2 µM)
Summary of the method: as §1

Zebularine + OSI-027 = compound: O=c1ncccn1[C@@H]1O[C@H](CO)[C@@H](O)[C@H]1O [Zebularine] + COc1cccc2cc(-c3nc([C@H]4CC[C@H](C(=O)O)CC4)n4ncnc(N)c34)[nH]c12 [OSI-027] (partner 0.5 µM)
Summary of the method: as §1

Zebularine + AZD7762 = compound: O=c1ncccn1[C@@H]1O[C@H](CO)[C@@H](O)[C@H]1O [Zebularine] + NC(=O)Nc1cc(-c2cccc(F)c2)sc1C(=O)N[C@H]1CCCNC1 [AZD7762] (partner 0.2 µM)
Summary of the method: as §1

Cell Line | relative viability (BI-D1870 + Foretinib; first compound 0.04 µM) | relative viability (BI-D1870 + Foretinib; first compound 0.1265 µM) | relative viability (BI-D1870 + Foretinib; first compound 0.4 µM) | relative viability (BI-D1870 + Foretinib; first compound 1.265 µM) | relative viability (BI-D1870 + Foretinib; first compound 4 µM) | relative viability (BI-D1870 + Lapatinib; first compound 0.04 µM) | relative viability (BI-D1870 + Lapatinib; first compound 0.1265 µM) | relative viability (BI-D1870 + Lapatinib; first compound 0.4 µM) | relative viability (BI-D1870 + Lapatinib; first compound 1.265 µM) | relative viability (BI-D1870 + Lapatinib; first compound 4 µM) | relative viability (Zebularine + OSI-027; first compound 1 µM) | relative viability (Zebularine + OSI-027; first compound 3.162 µM) | relative viability (Zebularine + OSI-027; first compound 10 µM) | relative viability (Zebularine + OSI-027; first compound 31.62 µM) | relative viability (Zebularine + OSI-027; first compound 100 µM) | relative viability (Zebularine + AZD7762; first compound 1 µM) | relative viability (Zebularine + AZD7762; first compound 3.162 µM) | relative viability (Zebularine + AZD7762; first compound 10 µM) | relative viability (Zebularine + AZD7762; first compound 31.62 µM) | relative viability (Zebularine + AZD7762; first compound 100 µM)
NCI-H358 | 0.657 | 0.529 | 0.669 | 0.752 | 0.433 | 0.501 | 0.413 | 0.551 | 0.504 | 0.556 | 0.862 | 0.474 | 0.378 | 0.286 | 0.177 | 0.591 | 0.386 | 0.484 | 0.451 | 0.333
NCI-H460 | 1.09 | 0.869 | 0.974 | 1.06 | 0.305 | 1.28 | 0.823 | 0.941 | 0.837 | 0.586 | 0.971 | 0.707 | 0.336 | 0.18 | 0.0887 | 0.781 | 0.716 | 0.294 | 0.434 | 0.126
NCI-H596 | 0.882 | 0.918 | 0.889 | 0.849 | 0.958 | 1.05 | 1.03 | 1.19 | 1.09 | 1.05 | 0.696 | 0.78 | 0.593 | 0.708 | 0.559 | 1.23 | 1.09 | 0.843 | 1.01 | 1.07
NCI-H647 | 1.11 | 1.18 | 1.13 | 1.35 | 1.17 | 1.26 | 0.927 | 1.02 | 1.03 | 0.671 | 0.717 | 0.676 | 0.363 | 0.186 | 0.16 | 0.814 | 0.445 | 0.256 | 0.259 | 0.211
NCI-H650 | 1.03 | 0.937 | 0.968 | 1.04 | 0.894 | 1.04 | 0.726 | 0.836 | 0.975 | 0.879 | 0.54 | 0.524 | 0.437 | 0.356 | 0.26 | 1.03 | 1.04 | 0.908 | 0.551 | 0.317
NCI-H727 | 0.793 | 0.931 | 0.883 | 0.871 | 0.739 | 1.15 | 0.819 | 0.786 | 1.18 | 0.673 | 0.52 | 0.54 | 0.522 | 0.674 | 0.446 | 0.785 | 0.703 | 0.606 | 0.646 | 0.574
NCI-H838 | 1.12 | 1.01 | 1.05 | 1.16 | 1.15 | 1.13 | 0.942 | 1.1 | 1.24 | 1.02 | 0.405 | 0.377 | 0.355 | 0.348 | 0.258 | 0.934 | 0.977 | 0.764 | 0.861 | 0.738
NCI-H1355 | 1.05 | 0.863 | 0.91 | 1.07 | 0.967 | 0.955 | 0.959 | 0.907 | 1.21 | 0.809 | 0.435 | 0.388 | 0.357 | 0.494 | 0.381 | 0.722 | 0.8 | 0.543 | 0.588 | 0.338
NCI-H1395 | 1.03 | 0.92 | 0.964 | 1.05 | 0.981 | 1.13 | 0.895 | 0.989 | 1.13 | 0.79 | 0.65 | 0.58 | 0.553 | 0.531 | 0.429 | 0.402 | 0.372 | 0.397 | 0.37 | 0.435
NCI-H1437 | 1.35 | 1.24 | 1.19 | 1.25 | 1.14 | 0.899 | 0.686 | 0.76 | 0.802 | 0.653 | 0.926 | 0.933 | 0.761 | 0.859 | 0.611 | 1.16 | 1.21 | 0.947 | 1.16 | 0.914
NCI-H1651 | 0.921 | 0.807 | 0.882 | 0.771 | 0.356 | 0.828 | 0.666 | 0.769 | 0.892 | 0.647 | 0.735 | 0.69 | 0.549 | 0.716 | 0.447 | 0.506 | 0.486 | 0.445 | 0.466 | 0.294
NCI-H1666 | 1.1 | 0.936 | 0.952 | 1.07 | 0.963 | 0.825 | 0.543 | 0.639 | 0.909 | 0.383 | 0.721 | 0.785 | 0.634 | 0.947 | 0.979 | 0.91 | 0.841 | 0.726 | 0.916 | 0.654
NCI-H1734 | 0.881 | 0.827 | 0.883 | 0.936 | 0.837 | 1.27 | 1.07 | 0.975 | 1.01 | 0.72 | 0.672 | 0.556 | 0.488 | 0.425 | 0.317 | 0.638 | 0.575 | 0.366 | 0.495 | 0.306
NCI-H1755 | 0.908 | 0.865 | 0.882 | 1.03 | 0.884 | 1.11 | 0.982 | 1.08 | 1.16 | 0.992 | 0.801 | 0.732 | 0.631 | 0.85 | 0.566 | 0.411 | 0.505 | 0.384 | 0.611 | 0.36
NCI-H1793 | 0.72 | 0.561 | 0.63 | 0.737 | 0.943 | 0.937 | 0.557 | 0.679 | 1.03 | 0.971 | 0.26 | 0.215 | – | 0.288 | 0.221 | 0.499 | 0.676 | 0.326 | 0.407 | 0.359
NCI-H1915 | 1.12 | 1.01 | 1.08 | 1.06 | 0.99 | 1.04 | 0.984 | 0.969 | 1.04 | 0.834 | 0.672 | 0.548 | – | 0.622 | 0.486 | 0.788 | 0.7 | 0.616 | 0.728 | 0.671
